Key:
S. epidermidis = experiment: Antimicrobial testing (CFU) against S. epidermidis; assay type: cell-based, Staphylococcus epidermidis; settings: 3 h, mean
Method: (§1) For bactericidal testing, logarithmically growing staphylococci were resuspended in PBS (Sigma) containing 0.1% TSB (Carl Roth) and colony-forming unit (CFU) was adjusted to 3 × 10^6 CFU/mL. Different concentrations of single peptides and their combinations were diluted in PBS containing 0.1% TSB and incubated with bacteria in triplicates for 3 h at 37 °C and 150 rpm orbital shaking. Subsequently, serial dilutions (10^–1–10^–4) of the bacterial suspensions were prepared in PBS and 20 µL of each dilution was spotted in duplicates onto TSB plates and incubated at 37 °C overnight. The next day, the number of CFU was analyzed and the percentage of viable bacteria was determined by normalizing to the untreated control (100%). Results are illustrated in a S. aureus killing curve. In each experiment, negative control replicates (PBS + 0.1% TSB) as well as sterility control replicates were included.
(§2) Supplementary Figure 7: Efficiency of Lugdunin and DCD -1(L) combinations in 107 […]
(§3) logarithmically grown bacteria were incubated with indicated combinations of 109 lugdunin and DCD-1(L) in PBS containing 0.1% TSB at 37 °C orbital shaking. After 3 110 hours of incubation several dilutions of the bacterial suspensions were plated onto TSB 111 agar pl ates and incubated over night at 37 °C. The next day bacterial CFU were 112 counted. Each experiment was performed in triplicates. Data represent the mean 113 percentage of CFU normalized to the untreated control. Data represent the mean of at 114 least three independent experiments. 115
(§4) (1 picture or pasted object on this page, not shown here)

P. mirabilis = experiment: Antimicrobial testing (CFU) against P. mirabilis; assay type: cell-based, Proteus mirabilis; settings: 3 h, mean
Method: as §1, §2, §3, §4

B. subtilis = experiment: Antimicrobial testing (CFU) against B. subtilis; assay type: cell-based, Bacillus subtilis; settings: for B. subtilis CFU normalized to untreated control (1,00): 3 h, mean
Method: as §1, §2, §3, §4

PHKs = experiment: Viability assay (MUH) in PHKs; assay type: cell-based, human
Method: Effects of the used peptides on keratinocytes, PBMCs, and nasal and tracheal epithelial cell viability were tested using 4-methylumbelliferyl heptanoate (MUH). Briefly, cells were treated with peptides and respective peptide combinations for 24 h, followed by incubation with 100 μg/mL MUH (Sigma-Aldrich) in PBS for 1 h at 37 °C. The absolute fluorescence intensity at λex of 355 nm and λem of 460 nm was measured using a Fluoroskan II (Labsystems).
10 a: PHKs were treated with increasing concentrations of lugdunin for 24 hours and 11 subsequently expression of CAMP (LL-37) was analyzed and normalized to actin. […]
14 b+c: PHKs were treated with increasing concentrations of lugdunin for 24 hours and 15 subsequently the concentration of LL-37 and CXCL8 in the supernatant was analyzed . […]
18 d: Representative hematoxylin-eosin-stained paraffin-embedded human 3D skin 19 equivalent. […] After 24 hours, the concentration of LL-37 and CXCL8 in the 21 supernatant was analyzed. […] Significant differences to control treatments were analyzed 23 by an unpaired two-tailed t-test (*P<0.05). […]
26 f: PHKs were treated with 2 µM natural lugdunin, synthetic lugdunin, N -Acetyl lugdunin 27 (grey bars) or 100 ng/mL Pam2Cys or Pam3Cys (white bars) as positive control for 5 28 hours and subsequently expression of CXCL8 was analyzed and normalized to actin. […]

Row | Substance | S. epidermidis CFU normalized to untreated control (1,00) (S. epidermidis; single peptide 1 µM) | S. epidermidis CFU normalized to untreated control (1,00) (S. epidermidis; single peptide 2 µM) | P. mirabilis CFU normalized to untreated control (1,00) (P. mirabilis; single peptide 1 µM) | P. mirabilis CFU normalized to untreated control (1,00) (P. mirabilis; single peptide 2 µM) | B. subtilis CFU normalized to untreated control (1,00) (B. subtilis; single peptide 1 µM) | B. subtilis CFU normalized to untreated control (1,00) (B. subtilis; single peptide 2 µM) | toxicity to the cell types analyzed (in words) (PHKs) | S. epidermidis CFU normalized to untreated control (1,00) (S. epidermidis; single peptide 3 µM) | P. mirabilis CFU normalized to untreated control (1,00) (P. mirabilis; single peptide 3 µM) | B. subtilis CFU normalized to untreated control (1,00) (B. subtilis; single peptide 3 µM) | susceptibility of B. subtilis (in words) (B. subtilis; text to Supp Fig 7)
1 | SSLLEKGLDGAKKAVGGLGKLGKDAVEDLESVGKGAVHDVKDVLDSV [DCD-1, dermcidin-derived human AMP of eccrine sweat glands] | 1,51 | 0,94 | 1,05 | 0,98 | 1,14 | 1,04 |  |  |  |  | 
2 | Lugdunin | 1,08 | 0,86 | 1,13 | 0,84 | 0,81 | 0,60 | not toxic | 1,20 | 0,98 | 0,44 | susceptible
3 | SSLLEKGLDGAKKAVGGLGKLGKDAVEDLESVGKGAVHDVKDVLDSVL [DCD-1L, dermcidin-derived human AMP of eccrine sweat glands] | 1,43 | 1,33 | 0,95 | 1,10 | 0,96 | 0,63 |  |  |  |  | 
